# Test results from US6737383B1, “Herbicidal oxadiazolidines” (priority 1999, dated 2004).
# Legend:
# [1] = tested on: wild oat; assay: Test B pre/postemergence wild oat; format: in vivo, Avena fatua; conditions: for Plant response rating, Wild oats: Rate 250 g/ha
# In short: (§1)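 Herbicidal effect was estimated by eye on a ten-point control scale after plants spent twelve to sixteen days in a greenhouse following soil or foliar treatment. Foliar sprays targeted plants at one to four leaves; all doses were formulated in a non-phytotoxic solvent with surfactant.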
# [2] = tested on: pigweed; assay: Test B pre/postemergence pigweed; format: in vivo, Amaranthus retroflexus
# In short: as §1
# [3] = tested on: crabgrass; assay: Test B pre/postemergence crabgrass; format: in vivo, Digitaria sanguinalis
# In short: as §1
# [4] = tested on: bedstraw; assay: Test B pre/postemergence bedstraw; format: in vivo, Galium aparine
# In short: as §1
# [5] = tested on: wheat; assay: Test B pre/postemergence wheat; format: in vivo, Triticum aestivum; conditions: for Plant response rating, Wheat: Rate 250 g/ha
# In short: as §1
# [6] = tested on: duck salad; assay: Test B flood test duck salad; format: in vivo, Heteranthera limosa
# In short: (§2)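 Plants were grown to the 2-leaf stage before treatment with test chemical, then held in a greenhouse for twelve to sixteen days. Injury was visually rated against untreated controls on a 0–10 scale, where 0 is no effect and 10 is complete control.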
# [7] = tested on: blackgrass; assay: Test B pre/postemergence blackgrass; format: in vivo, Alopecurus myosuroides
# In short: as §1
# [8] = tested on: surinam grass; assay: Test B pre/postemergence surinam grass; format: in vivo, Brachiaria decumbens
# In short: as §1
# [9] = tested on: corn; assay: Test B pre/postemergence corn; format: in vivo, Zea mays
# In short: as §1
# [10] = tested on: rape; assay: Test B pre/postemergence rape; format: in vivo, Brassica napus
# In short: as §1
# [11] = tested on: soybean; assay: Test B pre/postemergence soybean; format: in vivo, Glycine max
# In short: as §1
# [12] = tested on: purple nutsedge; assay: Test B pre/postemergence purple nutsedge; format: in vivo, Cyperus rotundus
# In short: as §1
# [13] = tested on: rice; assay: Test B flood test rice; format: in vivo, Oryza sativa
# In short: as §2
# [14] = tested on: smallflower flatsedge; assay: Test B flood test smallflower flatsedge; format: in vivo, Cyperus difformis
# In short: as §2
# [15] = tested on: velvetleaf; assay: Test B pre/postemergence velvetleaf; format: in vivo, Abutilon theophrasti; conditions: for Plant response rating, Velvetleaf: Rate 250 g/ha
# In short: as §1
# [16] = tested on: sugar beet; assay: Test B pre/postemergence sugar beet; format: in vivo, Beta vulgaris; conditions: for Plant response rating, Sugarbeets: Rate 250 g/ha
# In short: as §1
# [17] = Postemergence, Rate 125 g/ha, scale of 0 to 10 where 0 is no effect and 10 is complete control
# [18] = Preemergence, Rate 62 g/ha, scale 0 to 10 (0 no effect, 10 complete control)
# [19] = Preemergence, Rate 125 g/ha, 0 is no effect, 10 is complete control
# [20] = Preemergence, scale of 0 to 10 where 0 is no effect and 10 is complete control
# [21] = Preemergence, Rate 500 g/ha, scale 0 to 10 (0 no effect, 10 complete control)
# [22] = Rate 62 g/ha, Postemergence, scale of 0 to 10 where 0 is no effect and 10 is complete control
# [23] = Postemergence, scale 0 to 10, 0 is no effect, 10 is complete control
# [24] = Rate 500 g/ha, Postemergence, scale 0 to 10, 0 no effect, 10 complete control
# [25] = Preemergence, Rate 125 g/ha, scale 0 to 10 (0 no effect, 10 complete control)
# [26] = Preemergence, Rate 250 g/ha, scale of 0 to 10 where 0 is no effect and 10 is complete control
# [27] = Rate 250 g/ha, Postemergence, scale 0 to 10, 0 is no effect, 10 is complete control
# [28] = Postemergence, Rate 250 g/ha, scale 0 to 10, 0 no effect, 10 complete control
# [29] = Postemergence, Rate 62 g/ha, scale 0 to 10, 0 is no effect, 10 is complete control
# [30] = Rate 125 g/ha, Postemergence, scale 0 to 10, 0 no effect, 10 complete control
# [31] = Postemergence (flood test species), Rate 125 g/ha, scale of 0 to 10 where 0 is no effect and 10 is complete control
# [32] = Rate 62 g/ha, Postemergence section, flood test species, scale of 0 to 10 where 0 is no effect and 10 is complete control
# [33] = Rate 250 g/ha, headed Pre-emergence (flood test species), scale 0 to 10 (0 no effect, 10 complete control)
# [34] = Rate 500 g/ha, headed Pre-emergence (flood test species), scale 0 to 10 (0 no effect, 10 complete control)
# [35] = Rate 500 g/ha, listed under Postemergence (flood test species), scale 0 to 10, 0 no effect, 10 complete control
# [36] = Rate 1000 g/ha, Pre-emergence (as headed), scale 0 to 10
# [37] = Rate 2000 g/ha, Pre-emergence (as headed), scale 0 to 10
# [38] = Rate 250 g/ha, Postemergence (flood test), scale 0 to 10, 0 is no effect, 10 is complete control
structure (smiles),measurement,setting,value
CC(C)N(C(=O)n1oc(=O)n(C2CCCCC2)c1=O)c1ccc(Cl)cc1 [Compound 111],Wild oats plant response rating,[1]; [17],0
same,Wild oats plant response rating,[1]; [18],0
same,Wild oats plant response rating (0 to 10 scale),[1]; [19],0
same,"Plant response rating, Wild oats",[1]; [20],2
same,Wild oats plant response rating,[1]; [21],4
same,Wild oats plant response rating,[1]; [22],0
same,"Plant response rating, Wild oats",[1]; [23],1
same,Wild oats plant response rating,[1]; [24],2
same,Redroot pigweed plant response rating,[2]; [17],3
same,Redroot pigweed plant response rating,[2]; [18],3
same,"Plant response rating, Redroot pigweed",[2]; [25],6
same,"Plant response rating, Redroot pigweed",[2]; [26],8
same,Redroot pigweed plant response rating,[2]; [21],8
same,Redroot pigweed plant response rating,[2]; [22],3
same,"Plant response rating, Redroot pigweed",[2]; [27],4
same,Redroot pigweed plant response rating,[2]; [24],6
same,Crabgrass plant response rating,[3]; [17],2
same,Crabgrass plant response rating,[3]; [28],3
same,Crabgrass plant response rating,[3]; [18],6
same,"Plant response rating, Crabgrass",[3]; [25],7
same,"Plant response rating, Crabgrass",[3]; [26],9
same,Crabgrass plant response rating,[3]; [21],9
same,Crabgrass plant response rating,[3]; [22],1
same,Crabgrass plant response rating,[3]; [24],9
same,Bedstraw plant response rating,[4]; [29],5
same,Bedstraw plant response rating,[4]; [28],7
same,Bedstraw plant response rating,[4]; [18],0
same,"Plant response rating, Bedstraw",[4]; [25],0
same,"Plant response rating, Bedstraw",[4]; [26],0
same,Bedstraw plant response rating,[4]; [21],3
same,Bedstraw plant response rating,[4]; [30],5
same,Wheat plant response rating,[5]; [17],0
same,Wheat plant response rating,[5]; [18],0
same,Wheat plant response rating (0 to 10 scale),[5]; [19],0
same,"Plant response rating, Wheat",[5]; [20],0
same,Wheat plant response rating,[5]; [21],3
same,Wheat plant response rating,[5]; [22],0
same,"Plant response rating, Wheat",[5]; [23],0
same,Wheat plant response rating,[5]; [24],0
same,Ducksalad plant response rating,[6]; [31],0
same,Ducksalad plant response rating,[6]; [32],0
same,Ducksalad plant response rating,[6]; [33],0
same,"Plant response rating, Ducksalad",[6]; [34],0
same,Ducksalad plant response rating,[6]; [35],0
same,Ducksalad plant response rating,[6]; [36],0
same,Ducksalad plant response rating,[6]; [37],0
same,Ducksalad plant response rating,"[6]; flood test, listed under Postemergence, Rate 250 g/ha, scale 0 to 10, 0 no effect, 10 complete control",0
same,Blackgrass plant response rating,[7]; [17],3
same,Blackgrass plant response rating,[7]; [28],5
same,Blackgrass plant response rating,[7]; [18],0
same,"Plant response rating, Blackgrass",[7]; [25],0
same,"Plant response rating, Blackgrass",[7]; [26],2
same,Blackgrass plant response rating,[7]; [21],5
same,Blackgrass plant response rating,[7]; [22],0
same,Blackgrass plant response rating,[7]; [24],7
same,B. signalgrass plant response rating,[8]; [29],0
same,B. signalgrass plant response rating,[8]; [28],0
same,B. signalgrass plant response rating,[8]; [18],0
same,"Plant response rating, B. signalgrass",[8]; [25],1
same,"Plant response rating, B. signalgrass",[8]; [26],1
same,B. signalgrass plant response rating,[8]; [21],4
same,B. signalgrass plant response rating,[8]; [30],0
same,B. signalgrass plant response rating,"[8]; Rate 500 g/ha, Postemergence, scale of 0 to 10 where 0 is no effect and 10 is complete control",0
same,Corn plant response rating,[9]; [17],0
same,Corn plant response rating,[9]; [28],0
same,Corn plant response rating,[9]; [18],0
same,"Plant response rating, Corn",[9]; [25],1
same,"Plant response rating, Corn",[9]; [26],4
same,Corn plant response rating,[9]; [21],4
same,Corn plant response rating,[9]; [22],0
same,Corn plant response rating,[9]; [24],0
same,Rape plant response rating,[10]; [17],3
same,Rape plant response rating,[10]; [28],3
same,Rape plant response rating,[10]; [18],0
same,"Plant response rating, Rape",[10]; [25],0
same,"Plant response rating, Rape",[10]; [26],4
same,Rape plant response rating,[10]; [21],4
same,Rape plant response rating,[10]; [22],3
same,Rape plant response rating,[10]; [24],4
same,Soybean plant response rating,[11]; [17],3
same,Soybean plant response rating,[11]; [18],0
same,"Plant response rating, Soybean",[11]; [25],4
same,"Plant response rating, Soybean",[11]; [26],4
same,Soybean plant response rating,[11]; [21],5
same,Soybean plant response rating,[11]; [22],3
same,"Plant response rating, Soybean",[11]; [27],4
same,Soybean plant response rating,[11]; [24],5
same,Nutsedge plant response rating,[12]; [17],0
same,Nutsedge plant response rating,[12]; [28],0
same,Nutsedge plant response rating,[12]; [18],0
same,"Plant response rating, Nutsedge",[12]; [25],0
same,"Plant response rating, Nutsedge",[12]; [26],0
same,Nutsedge plant response rating,[12]; [21],0
same,Nutsedge plant response rating,[12]; [22],0
same,Nutsedge plant response rating,[12]; [24],0
same,Rice plant response rating,[13]; [31],0
same,Rice plant response rating,[13]; [32],0
same,"Plant response rating, Rice",[13]; [38],0
same,Rice plant response rating,[13]; [33],0
same,"Plant response rating, Rice",[13]; [34],0
same,Rice plant response rating,[13]; [35],0
same,Rice plant response rating,[13]; [36],0
same,Rice plant response rating,[13]; [37],0
same,S. Flatsedge plant response rating,[14]; [31],0
same,S. Flatsedge plant response rating,"[14]; Pre-emergence, Rate 1000 g/ha, scale 0 to 10 (0 no effect, 10 complete control)",0
same,S. Flatsedge plant response rating,[14]; [32],0
same,"Plant response rating, S. Flatsedge",[14]; [38],0
same,S. Flatsedge plant response rating,[14]; [33],0
same,"Plant response rating, S. Flatsedge",[14]; [34],0
same,S. Flatsedge plant response rating,[14]; [35],0
same,S. Flatsedge plant response rating,[14]; [37],0
same,Velvetleaf plant response rating,[15]; [17],0
same,Velvetleaf plant response rating,[15]; [18],0
same,Velvetleaf plant response rating (0 to 10 scale),[15]; [19],0
same,"Plant response rating, Velvetleaf",[15]; [20],3
same,Velvetleaf plant response rating,[15]; [21],7
same,Velvetleaf plant response rating,[15]; [22],0
same,"Plant response rating, Velvetleaf",[15]; [23],0
same,Velvetleaf plant response rating,[15]; [24],2
same,Sugarbeets plant response rating,[16]; [17],3
same,Sugarbeets plant response rating,[16]; [18],0
same,Sugarbeets plant response rating (0 to 10 scale),[16]; [19],0
same,"Plant response rating, Sugarbeets",[16]; [20],3
same,Sugarbeets plant response rating,[16]; [21],4
same,Sugarbeets plant response rating,[16]; [22],2
same,"Plant response rating, Sugarbeets",[16]; [23],3
same,Sugarbeets plant response rating,[16]; [24],4
